Experimental data: ChEMBL document CHEMBL5046262, “Fragment-Based Discovery of MRTX1719, a Synthetic Lethal Inhibitor of the PRMT5•MTA Complex for the Treatment of MTAP-Deleted Cancers” (J Med Chem, 2022)
Several values for one entry are separate records, joined by “and”; a condition that tells them apart may be missing. Identical values can stand only once.

How the values were obtained:
[1] = biological target: T1, Protein arginine N-methyltransferase 5 (Homo sapiens, UniProt O14744)
[2] = Apparent permeability across apical to basolateral side in dog MDCKII-MDR1 cells at 2 uM incubated for 2.5 hrs by LC-MS/MS analysis; assay type: ADME, cell-based, Canis lupus familiaris, MDCK-MDR1; settings: MDCK-MDR1
[3] = organism: Homo sapiens; assay: Selectivity ratio of IC50 for inhibition of human PRMT5 co-complexed with MEP50 in absence of MTA to IC50 for inhibition of MTA-bound human PRMT5 co-complexed with MEP50
[4] = biological target: T1, Protein arginine N-methyltransferase 5; remark: listed apart in the source
[5] = Efflux ratio of apparent permeability across basolateral to apical side over apical to basolateral side in dog MDCKII-MDR1 cells at 2 uM incubated for 2.5 hrs by LC-MS/MS analysis; assay type: ADME, cell-based, Canis lupus familiaris, MDCK-MDR1; settings: for efflux ratio at 2.5 h, 2 µM: MDCK-MDR1
[6] = tested on: HCT-116; assay: Antiproliferative activity against MTAP knockout human HCT-116 cells assessed as reduction in cell viability incubated for 5 days followed by replacement with fresh medium containing compound and measured after 5 days by CTG assay; assay type: functional, cell-based
[7] = biological target: T1, Protein arginine N-methyltransferase 5; assay: Inhibition of PRMT5 methyltransferase activity in MTAP knockout human HCT-116 cells assessed as inhibition of PRMT5- mediated SDMA modification level incubated for 96 hrs by Western blot analysis; assay type: cell-based
[8] = Intrinsic clearance in human hepatocytes; assay type: ADME, cell-based, Hepatocyte; settings: read-out: CLH
[9] = tested on: HCT-116; assay: Antiproliferative activity against human HCT-116 cells expressing wild type MTAP assessed as reduction in cell viability incubated for 5 days followed by replacement with fresh medium containing compound and measured after 5 days by CTG assay; assay type: functional, cell-based
[10] = biological target: T1, Protein arginine N-methyltransferase 5; assay: Inhibition of PRMT5 methyltransferase activity in human HCT-116 cells expressing wild type MTAP assessed as inhibition of PRMT5- mediated SDMA modification level incubated for 96 hrs by Western blot analysis; assay type: cell-based
[11] = Intrinsic clearance in mouse hepatocytes; assay type: ADME, cell-based, Hepatocyte; settings: read-out: CLH
[12] = organism: Homo sapiens; assay: Selectivity ratio of IC50 for inhibition of PRMT5 methyltransferase activity in human HCT-116 cells expressing wild type MTAP to IC50 for nhibition of PRMT5 methyltransferase activity in MTAP knockout human HCT-116 cells; assay type: cell-based
[13] = Total clearance in CD-1 mouse at 3 mg/kg, iv measured upto 24 hrs by LC-MS/MS analysis; assay type: ADME, organism-based; settings: in vivo
[14] = Oral bioavailability in CD-1 mouse at 30 mg/kg administered via gavage measured upto 24 hrs by LC-MS/MS analysis; assay type: ADME, organism-based; settings: in vivo
[15] = Volume of distribution at steady state in CD-1 mouse at 3 mg/kg, iv measured upto 24 hrs by LC-MS/MS analysis; assay type: ADME, organism-based; settings: in vivo, read-out: Vdss
[16] = Half life in CD-1 mouse at 3 mg/kg, iv measured upto 24 hrs by LC-MS/MS analysis; assay type: ADME, organism-based; settings: in vivo

T1 sequence (O14744 whole entry): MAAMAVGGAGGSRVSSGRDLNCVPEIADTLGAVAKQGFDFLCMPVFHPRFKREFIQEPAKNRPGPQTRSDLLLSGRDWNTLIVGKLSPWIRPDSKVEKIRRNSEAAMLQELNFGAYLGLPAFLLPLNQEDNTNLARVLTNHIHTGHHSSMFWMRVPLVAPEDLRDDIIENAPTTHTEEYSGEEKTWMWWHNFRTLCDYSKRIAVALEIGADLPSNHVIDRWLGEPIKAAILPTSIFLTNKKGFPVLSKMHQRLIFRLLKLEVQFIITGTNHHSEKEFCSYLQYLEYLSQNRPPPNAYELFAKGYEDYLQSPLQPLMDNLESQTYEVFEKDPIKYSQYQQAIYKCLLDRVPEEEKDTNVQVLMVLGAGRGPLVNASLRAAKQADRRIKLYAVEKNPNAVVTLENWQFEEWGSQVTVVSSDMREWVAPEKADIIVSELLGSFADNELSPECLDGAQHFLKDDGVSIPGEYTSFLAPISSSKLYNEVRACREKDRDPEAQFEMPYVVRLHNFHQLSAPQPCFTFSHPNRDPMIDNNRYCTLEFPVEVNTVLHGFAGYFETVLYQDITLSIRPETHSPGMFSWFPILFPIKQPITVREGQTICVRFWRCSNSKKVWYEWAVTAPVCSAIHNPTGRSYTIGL

Structure (SMILES) | IC50 [1] [nM] | Papp A→B at 2.5 h, 2 µM [2] [×10⁻⁶ cm/s] | Ratio IC50 [3] | IC50 [4] [nM] | efflux ratio at 2.5 h, 2 µM [5] | IC50 [6] | IC50 [7] [nM] | CLint scaled [8] [mL/min/kg] | IC50 [9] | IC50 [10] | CLint scaled [11] [mL/min/kg] | Ratio IC50 [12] | clearance [13] [mL/min/kg] | bioavailability [14] [%] | Vd [15] [L/kg] | half-life [16] [h] | Ratio ([5]; mdck-mdr1, 2.5 h, 2 µM, 2.5 h)
CC(C)n1cc(-c2ccc3c(=O)[nH]nc(CN)c3c2)cn1 | 670 | 1.31 | 17 | 11400 | 20.1 |  |  |  |  |  |  |  |  |  |  |  | 
Cc1ccc(-c2ccc3c(=O)[nH]nc(CN)c3c2)cn1 | 5800 | 4.7 | 12 | 69000 | 3.5 |  |  |  |  |  |  |  |  |  |  |  | 
Cn1ncc(-c2ccc3c(=O)[nH]nc(CN)c3c2)c1-c1ccccc1 | 3000 | 1.5 |  |  | 20 | 3650 nM | 2470 | 23 | 4060 nM | 9810 nM | 123 |  |  |  |  |  | 
CCc1cccc(-c2c(-c3ccc4c(=O)[nH]nc(CN)c4c3)cnn2C)c1C#N | 2000 | 0.3 |  |  | 35 | 175 nM | 79 | 18 | > 10000 nM | 3210 nM | 523 |  |  |  |  |  | 
Cn1ncc(-c2ccc3c(=O)[nH]nc(CN)c3c2)c1-c1c(Cl)ccc(OC2CC2)c1C#N |  | 0.3 |  |  | 131 | 91 nM | 11 | < 18 | 1650 nM | > 1000 nM | 332 |  |  |  |  |  | 
NCc1n[nH]c(=O)c2ccc(-c3cnn(CCO)c3)cc12 |  | 0.9 | 16 | 11200 | 0.9 |  |  |  |  |  |  |  |  |  |  |  | 
NCc1n[nH]c(=O)c2ccc(-c3cncs3)cc12 |  | 14.6 |  |  | 0.6 |  |  |  |  |  |  |  |  |  |  |  | 
Cc1cccc(-c2c(-c3ccc4c(=O)[nH]nc(CN)c4c3)cnn2C)c1C#N | 3000 | 0.6 |  |  | 36 | 365 nM | 101 | 29 | > 10000 nM | 8830 nM | 296 |  |  |  |  |  | 
Cn1ncc(-c2ccc3c(=O)[nH]nc(CN)c3c2)c1-c1ccc2ccccc2c1C#N |  | 0.4 |  |  | 99 | 49 nM | 11 | < 18 | 1980 nM | 1210 nM | 340 |  |  |  |  |  | 
Cn1ncc(-c2ccc3c(=O)[nH]nc(CN)c3c2)c1-c1ccccc1C#N | 4000 | 1.6 |  |  | 7 | 5230 nM | 826 | < 18 | > 10000 nM | 3170 nM | 148 | 4 |  |  |  |  | 
NCc1n[nH]c(=O)c2ccc(-c3ccccc3)cc12 |  |  | 3 |  |  |  |  |  |  |  |  |  |  |  |  |  | 
Cc1c(-c2ccc3c(=O)[nH]nc(CN)c3c2)cnn1C | 50 | 4.9 | 26 | 1290 | 0.6 |  |  |  |  |  |  |  |  |  |  |  | 
Cn1ncc(-c2ccc3c(=O)[nH]nc(CN)c3c2)c1-c1cccc(Cl)c1C#N | 2000 | 0.7 |  |  | 35 | 544 nM | 62 | < 18 | > 10000 nM | 8810 nM | 232 |  | 121 | 12 | 6.6 | 1.3 | 
NCc1n[nH]c(=O)c2ccc(-c3cnsc3)cc12 | 710 | 11.1 | 16 | 11600 | 0.8 |  |  |  |  |  |  |  |  |  |  |  | 
COc1cccc(-c2c(-c3ccc4c(=O)[nH]nc(CN)c4c3)cnn2C)c1C#N | 1000 | 0.6 |  |  | 20 | 851 nM | 62 | < 18 | > 10000 nM | > 10000 nM | 137 |  |  |  |  |  | 
CC(=O)N1CCC(Nc2cc(C(=O)NC[C@H](O)CN3CCc4ccccc4C3)ncn2)CC1 [PEMRAMETOSTAT] |  |  |  |  |  | 189 nM |  |  | 237 nM |  |  |  |  |  |  |  | 
Cc1cc(OC2CC2)c(C#N)c(-c2c(-c3ccc4c(=O)[nH]nc(CN)c4c3)cnn2C)c1 |  | 0.4 |  |  | 62 | 77 nM | 9 | 21 | 1290 nM |  | 175 |  |  |  |  |  | 
NCc1n[nH]c(=O)c2ccc(-c3cccnn3)cc12 | 30100 | 1.1 |  | > 100000 | 0.9 |  |  |  |  |  |  |  |  |  |  |  | 
Cn1ncc(-c2ccc3c(=O)[nH]nc(CN)c3c2)c1-c1cc2ccccc2cc1C#N |  | 0.5 |  |  | 31 | 264 nM | 118 | < 18 | 5090 nM |  | 212 |  |  |  |  |  | 
Cn1ncc(-c2ccc3c(=O)[nH]nc(CN)c3c2)c1-c1c(F)cccc1C#N | 4000 | 0.3 |  |  | 42 | 761 nM | 322 | 18 | 7440 nM | > 10000 nM | 171 |  |  |  |  |  | 
Cn1ncc(-c2ccc3c(=O)[nH]nc(CN)c3c2)c1-c1c(F)ccc(OC2CC2)c1C#N |  | 0.2 |  |  | 143 | 43 nM and 17 nM and 112 nM |  | 18 | 2180 nM and 3620 nM and 4210 nM | 1050 nM and 4480 nM | 143 |  |  |  |  |  | 123 and 150
CCn1cc(-c2ccc3c(=O)[nH]nc(CN)c3c2)cn1 | 510 | 2 | 21 | 10600 | 6.2 |  |  |  |  |  |  |  |  |  |  |  | 
NCc1n[nH]c(=O)c2ccc(-c3cccnc3)cc12 | 910 | 2.8 | 21 | 19000 | 0.7 |  |  |  |  |  |  |  |  |  |  |  | 
NCc1n[nH]c(=O)c2ccc(-c3ccccn3)cc12 | 95800 | 9.3 |  | > 100000 | 1.2 |  |  |  |  |  |  |  |  |  |  |  | 
Cn1ncc(-c2ccc3c(=O)[nH]nc(CN)c3c2)c1-c1sc2ccccc2c1C#N |  | 0.6 |  |  | 58 | 58 nM | 5 | 41 | 5800 nM | > 1000 nM | 280 |  |  |  |  |  | 
CCCn1cc(-c2ccc3c(=O)[nH]nc(CN)c3c2)cn1 | 320 | 3.2 | 24 | 7650 | 2.7 |  |  |  |  |  |  |  |  |  |  |  | 
